Test results published in patent publication US20040086901A1, “Database for analyzing gene function and method of analyzing gene function by dspa” (priority 2000, published 2004).

Tests used:
Format in all cases: cell-based, mouse
[1] = system: NIH3T3 cells overexpressing p53(wt); assay: MTT cell viability, p53(wt) overexpressing cells vs parental line; details: p53(wt) high-expressing cells / parental cell line, 3 to 4 days
Method: (§1) With regard to the function-known genes, the genes shown in the left column of Table 2 were used. With regard to the drugs, those shown in Table 1 were dissolved in DMSO to an extent of 100-fold of the maximum concentration for the search of the drugs and used. With regard to the cells, incubated NIH3T3 or ras-NIH3T3 cells were used.
(§2) Full-length cDNA of each function-known genes was incorporated into an expression vector (pRc-CMV, etc.) and transfected into NIH3T3 cells by a common method. Transformed cells were isolated using the resistance to G-418 as an index and the expression of the transfected gene in each cell was investigated by Western blotting method to select a highly expressing line.
(§3) Cell viabilities were measured according to the following procedures.
(§4) 1) From the 2nd to the 11th rows of a 96-well plate were filled with DMEM (50 μl). The 12th row was filled with 100 μl of DMEM.
(§5) 2) The 1st row was filled with 98 μl of DMEM.
(§6) 3) Drugs (2 μl each) were added into the 1st row.
(§7) 4) Continuous double-dilution was conducted from the 1st to the 9th rows. Fifty μl were taken out from the 9th row and discarded. The plate was preserved in a CO2 incubator.
(§8) 5) Cells (each high-expressing cells and the parental cell line) were detached from the medium using a trypsin solution, suspended in 10% CS-DMEM and transferred to a test tube and cell numbers (cell/ml) were counted.
(§9) 6) The cells were diluted to a concentration of 1×10^5 cells/ml, and 50 μl of the cell suspension were added to the 1st to the 11th rows of the plate followed by gently stirring.
(§10) 7) The plate was transferred to the CO2 incubator and incubated for 3 to 4 days.
(§11) 8) MTT (5 mg/ml in PBS) (10 μl) was added to the 1st to the 12th rows of the plate and incubated in the CO2 incubator at 37° C. for 4 hours.
(§12) 9) A reaction stop solution (0.04N HCl in isopropanol) (150 μl) was added followed by mixing well and being allowed to stand at room temperature for about 2 hours.
(§13) 10) Coloration of formazan which was a metabolite of the MTT dye was measured using a microplate reader. The measurement wavelength was 574 nm and the reference wavelength was 655 nm. The 10th and the 11th rows of the plate were 100% controls and the 12th row was a 0% control.
(§14) As an index for the sensitivity of highly gene-expressing cells and the parental cell line to various drugs, each of the IC40 values thereof was specified and ratios of the IC40 values were calculated. […] After that, logarithmic values of ratios of IC40 values were calculated from each gene.

[2] = system: NIH3T3 cells overexpressing Cip-1; assay: MTT cell viability, Cip-1 overexpressing cells vs parental line; details: Cip-1 high-expressing cells / parental cell line, 3 to 4 days
Method: as §1, §2, §3, §4, §5, §6, §7, §8, §9, §10, §11, §12, §13, §14

[3] = system: NIH3T3 cells overexpressing RhoA-DN; assay: MTT cell viability, RhoA-DN overexpressing cells vs parental line; details: RhoA-DN high-expressing cells / parental cell line, 3 to 4 days
Method: as §1, §2, §3, §4, §5, §6, §7, §8, §9, §10, §11, §12, §13, §14

[4] = system: NIH3T3 cells overexpressing CaMKIIa-Active; assay: MTT cell viability, CaMKIIa-Active overexpressing cells vs parental line; details: CaMKIIa-Active high-expressing cells / parental cell line, 3 to 4 days
Method: as §1, §2, §3, §4, §5, §6, §7, §8, §9, §10, §11, §12, §13
As an index for the sensitivity of highly gene-expressing cells and the parental cell line to various drugs, each of the IC40 values thereof was specified and ratios of the IC40 values were calculated. FIG. 2 and FIG. 3 are the examples where ratios of IC40 values were calculated from a curve showing the dependency on the concentration of the chemical versus the viability. After that, logarithmic values of ratios of IC40 values were calculated from each gene.

[5] = system: NIH3T3 cells overexpressing C/EBPa; assay: MTT cell viability, C/EBPa overexpressing cells vs parental line; details: C/EBPa high-expressing cells / parental cell line, 3 to 4 days
Method: as §1, §2, §3, §4, §5, §6, §7, §8, §9, §10, §11, §12, §13, §14

[6] = system: NIH3T3 cells overexpressing C/EBPb; assay: MTT cell viability, C/EBPb overexpressing cells vs parental line; details: C/EBPb high-expressing cells / parental cell line, 3 to 4 days
Method: as §1, §2, §3, §4, §5, §6, §7, §8, §9, §10, §11, §12, §13, §14

[7] = system: NIH3T3 cells overexpressing T.Tn; assay: MTT cell viability, T.Tn overexpressing cells vs parental line; details: T.Tn high-expressing cells / parental cell line, 3 to 4 days
Method: as §1, §2, §3, §4, §5, §6, §7, §8, §9, §10, §11, §12, §13, §14

Compound	logarithmic value of ratio of IC40 values [1]	logarithmic value of ratio of IC40 values [2]	logarithmic value of ratio of IC40 values [3]	logarithmic value of ratio of IC40 values [4]	logarithmic value of ratio of IC40 values [5]	logarithmic value of ratio of IC40 values [6]	logarithmic value of ratio of IC40 values [7]
COc1ccc2c(c1)CC[C@@H]1[C@@H]2CC[C@]2(C)[C@@H](NCCCCCCN3C(=O)C=CC3=O)CC[C@@H]12 [U73122]	0.11	0.08	−0.35	0.00	0.00	0.10	−0.26
C/C=C(/C)C(=O)O[C@H]1C(C)=C2[C@H]([C@@H]1OC(=O)CCCCCCC)[C@@](C)(OC(C)=O)C[C@H](OC(=O)CCC)[C@@]1(O)[C@H]2OC(=O)[C@@]1(C)O [Thapsigargin, thapsigargin]	−0.05	0.04	0.06	0.03	−0.09	0.29	0.32
C[C@@H]1O[C@@H](O[C@H]2C[C@@H](O)[C@]3(CO)[C@H]4[C@H](O)C[C@]5(C)[C@@H](C6=CC(=O)OC6)CC[C@]5(O)[C@@H]4CC[C@]3(O)C2)[C@H](O)[C@H](O)[C@H]1O [Ouabain, ouabain]	–	0.16	0.45	0.60	0.00	0.00	0.28
C[C@@H]1C[C@@H]([C@H](O)CC2CC(=O)NC(=O)C2)C(=O)[C@@H](C)C1 [CHX, cycloheximide]	0.85	1.77	0.22	−0.09	0.00	0.37	0.00
C=CC1=C(C)c2cc3[n-]c(cc4nc(cc5[n-]c(cc1n2)c(C)c5CCC(=O)O)C(CCC(=O)O)=C4C)c(C)c3C=C.[Cl-].[Cl-].[Sn+4] [SnPP]	−0.18	−0.66	0.08	0.30	0.00	−0.50	0.00
sodium vanadate	0.00	0.00	−0.12	0.01	−0.02	–	0.46
C=C[C@]1(C)CC[C@@H](C(=C)C)C[C@H]1C(=C)C [b-elemene, β-elemene]	0.00	0.00	–	–	0.00	0.50	−0.14
Nc1nc2nc[nH]c2c(=S)[nH]1 [6-TG, 6-thioguanine]	–	0.47	0.41	0.62	0.00	–	0.00
CN[C@@H]1C[C@H]2O[C@@](C)([C@@H]1OC)n1c3ccccc3c3c4c(c5c6ccccc6n2c5c31)C(=O)NC4 [Staurosporine]	0.07	–	0.14	−0.04	–	−0.23	–
COC(=O)[C@@]1(O)C[C@H]2O[C@]1(C)n1c3ccccc3c3c4c(c5c6ccccc6n2c5c31)C(=O)NC4 [K252a]	0.05	–	0.28	0.10	−0.48	0.25	0.00
CN(C)CCCn1cc(C2=C(c3c[nH]c4ccccc34)C(=O)NC2=O)c2ccccc21 [GF109203X]	0.62	0.30	–	–	0.00	–	−0.10
O=CN/C=C/c1cc(O)ccc1O [Erbstatin, erbstatin]	0.17	–	−0.02	0.21	0.11	0.48	0.48
CC(C)(C)C(=O)Oc1ccc(S(=O)(=O)Nc2ccccc2C(=O)NCC(=O)O)cc1 [compound 5046]	–	−0.14	–	0.35	–	0.17	–
C=C[C@@]1(C)CC(=O)[C@]2(O)[C@@]3(C)[C@@H](O)CCC(C)(C)[C@@H]3[C@H](O)[C@H](OC(C)=O)[C@@]2(C)O1 [Forskolin, forskolin]	0.98	–	−0.36	0.43	0.00	0.93	0.53
O=c1c(-c2ccc(O)cc2)coc2cc(O)cc(O)c12 [Genistein, genistein]	0.26	–	0.00	0.23	−0.43	0.19	−0.25
COC[C@H]1OC(=O)c2coc3c2[C@@]1(C)C1=C(C3=O)[C@@H]2CCC(=O)[C@@]2(C)C[C@H]1OC(C)=O [Wortmannin, wortmannin]	0.40	–	0.00	0.18	0.00	0.34	0.36
